Source: ChEMBL document CHEMBL1140355, “New HIV-1 replication inhibitors of the styryquinoline class bearing aroyl/acyl groups at the C-7 position: synthesis and biological activity” (Bioorg Med Chem Lett, 2005)

Experiments:
[1] = system: Human immunodeficiency virus 1; assay: Antiviral activity against human immunodeficiency virus type 1 by using MAGI assay; type: functional, organism-based; details: Human immunodeficiency virus 1, MAGI
[2] = Toxicity towards CEM cells determined by standard MTT assay, expressed as concentration required for the survival of 50% cells; type: cell-based; details: human, CEM cells (CCRF-CEM cell line); read-out: TC50 (the source's name)
[3] = system: Human immunodeficiency virus 1; assay: Antiviral activity against human immunodeficiency virus type 1 by using MAGI assay; NR = not reached; type: functional, organism-based

IC50 [1] | IC50 [3] | SMILES | CC50 [2]
40 µM |  | O=C(O)c1ccc(C(=O)c2ccc3ccc(/C=C/c4ccc(O)c(O)c4)nc3c2O)cc1 | 80 µM
 | Not reached | O=C(c1ccc2ccc(/C=C/c3ccc(O)c(O)c3)nc2c1O)c1cccc2ccccc12 | 1 µM
 | Not reached | O=C(c1ccccc1)c1ccc2ccc(/C=C/c3ccc(O)c(O)c3)nc2c1O | 3 µM
2 µM |  | O=C(c1ccc([N+](=O)[O-])cc1)c1ccc2ccc(/C=C/c3ccc(O)c(O)c3)nc2c1O | 60 µM
60 µM |  | Cc1cc(C(=O)c2ccc3ccc(/C=C/c4ccc(O)c(O)c4)nc3c2O)ccc1[N+](=O)[O-] | 90 µM
63 µM |  | O=C(O)c1cccc(C(=O)c2ccc3ccc(/C=C/c4ccc(O)c(O)c4)nc3c2O)c1 | > 100 µM
2 µM |  | O=C(CCc1ccccc1)c1ccc2ccc(/C=C/c3ccc(O)c(O)c3)nc2c1O | 7 µM
2 µM |  | O=C(c1cccnc1)c1ccc2ccc(/C=C/c3ccc(O)c(O)c3)nc2c1O | > 100 µM
 | Not reached | O=C(c1ccncc1)c1ccc2ccc(/C=C/c3ccc(O)c(O)c3)nc2c1O | 4 µM
6 µM |  | O=C(c1ccc(O)cc1)c1ccc2ccc(/C=C/c3ccc(O)c(O)c3)nc2c1O | 87 µM
4 µM |  | O=C(c1ccccc1[N+](=O)[O-])c1ccc2ccc(/C=C/c3ccc(O)c(O)c3)nc2c1O | 70 µM
4 µM |  | O=C(c1ccc(F)c(F)c1)c1ccc2ccc(/C=C/c3ccc(O)c(O)c3)nc2c1O | 63 µM
0.5 µM |  | O=C(c1cccc([N+](=O)[O-])c1)c1ccc2ccc(/C=C/c3ccc(O)c(O)c3)nc2c1O | 1.5 µM
 | Not reached | O=C(c1ccccc1O)c1ccc2ccc(/C=C/c3ccc(O)c(O)c3)nc2c1O | 1 µM
5 µM |  | CCCCCCCCC(=O)c1ccc2ccc(/C=C/c3ccc(O)c(O)c3)nc2c1O | 10 µM
 |  | O=C(O)c1ccc2ccc(/C=C/c3ccc(O)c(O)c3)nc2c1O | > 100 µM
35 µM |  | O=C(O)c1ccccc1C(=O)c1ccc2ccc(/C=C/c3ccc(O)c(O)c3)nc2c1O | > 100 µM
 | Not reached | O=C(c1ccccn1)c1ccc2ccc(/C=C/c3ccc(O)c(O)c3)nc2c1O | 15 µM
